Laboratory results as given in US20250129109A1.

Assays:
[1] = test system: human gingival fibroblast cells (HGF-1); assay: Cell cytotoxic test, human gingival fibroblast cells; settings: HGF-1 cells; IC50 as silver concentration
[2] = test system: stem cells from human exfoliated deciduous teeth (SHED1); assay: Cell cytotoxic test, stem cells from human exfoliated deciduous teeth; settings: IC50 as silver concentration

C1N2CN3CN1CP(C2)C3.C1N2CN3CN1CP(C2)C3.[Ag+].[F-] [SCF, [Ag(1,3,5-triaza-7-phosphaadamantane)2]F]
IC50 against HGF-1 (cell cytotoxicity) [1]: 43.98±12.80 ppm
IC50 against SHED1 (cell cytotoxicity) [2]: 34.54±5.09 ppm
